Assay results from US20070244115A1, “Amino-Halogen-Imidazopyridines as Proton Pump Inhibitors” (Alana Pharma AG, priority 2004, published 2007).

System: pentagastrin-stimulated acid secretion of the perfused rat stomach
Experiment: Secretion-inhibiting action on the perfused rat stomach (pentagastrin-stimulated acid secretion)
Format: in vivo
Details: anesthetized CD rat, dose 2.2 μmol/kg i.d. (intraduodenal)
Text: Testing of the Secretion-Inhibiting Action on the Perfused Rat Stomach
In Table A which follows, the influence of the compounds according to the invention on the pentagastrin-stimulated acid secretion of the perfused rat stomach after intraduodenal administration in vivo is shown.
The abdomen of anesthetized rats (CD rat, female, 200-250 g; 1.5 g/kg i.m. urethane) was opened after tracheotomy by a median upper abdominal incision and a PVC catheter was fixed transorally in the esophagus and another via the pylorus such that the ends of the tubes just projected into the gastric lumen. The catheter leading from the pylorus led outward into the right abdominal wall through a side opening.
After thorough rinsing (about 50-100 ml), warm (37° C.) physiological NaCl solution was continuously passed through the stomach (0.5 ml/min, pH 6.8-6.9; Braun-Unita I). The pH (pH meter 632, glass electrode EA 147; φ=5 mm, Metrohm) and, by titration with a freshly prepared 0.01N NaOH solution to pH 7 (Dosimat 665 Metrohm), the secreted HCl were determined in the effluent in each case collected at an interval of 15 minutes.
The gastric secretion was stimulated by continuous infusion of 1 μg/kg (=1.65 ml/h) of i.v. pentagastrin (left femoral vein) about 30 min after the end of the operation (i.e. after determination of 2 preliminary fractions). The substances to be tested were administered intraduodenally in a 2.5 ml/kg liquid volume 60 min after the start of the continuous pentagastrin infusion.
The body temperature of the animals was kept at a constant 37.8-38° C. by infrared irradiation and heat pads (automatic, stepless control by means of a rectal temperature sensor).

Structure (SMILES) | Inhibition of acid secretion (%)
COc1ccc2nc([S+]([O-])Cc3nccc(N4CCOCC4)c3Cl)[nH]c2n1 (stereo not drawn) [Example 1, 2-(3Chloro-4-morpholin-4-yl-pyridin-2-ylmethanesulfinyl)-5-methoxy-3H-imidazo[4,5-b]pyridine] | >50%
COc1ccc2nc([S@@+]([O-])Cc3nccc(N4CCOCC4)c3Cl)[nH]c2n1 [Example 2, (S)-2-(3-Chloro-4-morpholin-4-yl-pyridin-2-ylmethanesulfinyl)-5-methoxy-3H-imidazo[4,5-b]pyridine] | >50%
COc1ccc2nc([S@+]([O-])Cc3nccc(N4CCOCC4)c3Cl)[nH]c2n1 [Example 3, (R)-2-(3-Chloro-4-morpholin-4-yl-pyridin-2-ylmethanesulfinyl)-5-methoxy-3H-imidazo[4,5-]pyridine] | >50%
